# According to US20240009150A1, “CAPSAICYNS IN THE TREATMENT OF LEAKY GUT” (AXICHEM AB [SE]/[SE], priority 2020, published 2024):
# System: Salmonella enterica subsp. enterica serovar Paratyphi C (ATCC® BAA1714™)
# Experiment: Inhibition of biofilm formation with different capsaicyn compounds, crystal violet staining assay (Example 6)
# Assay type: cell-based
# Conditions: for Biofilm (OD 595 nm): 24 hr, 30° C.
# Method: Biofilm formation was quantified with modifications using the method described by Stepanovic et al. (Journal of Microbiological Methods, 2000, 40(2), 175-19) with modifications. Using a 96-well microplate duplicate the test solutions were filled at the above selected doses. Cultures were grown for 18 hr in LB at 30° C. and adjusted to OD 0.1 at 600 nm. 20 μL of the culture were added into each well and the remainder of the volume to 200 μL per well was filled with LB. Unused external wells were filled with 200 μL of sterile water to prevent evaporation.
# After 24 hr of incubation, supernatants were discarded, and the wells were washed three times with 200 μL of sterile phosphate buffered saline (PBS). Bacteria adhered to the wells were fixed with 200 μL of methanol for 15 min, the methanol was discarded, and the plates dried at 25° C.
# Each well was stained with 200 μL of 0.3% (w/v) crystal violet solution for 5 min at 25° C. Crystal violet excess was pipetted out, and the wells were rinsed five times with sterile PBS. 200 μL of 33% (v/v) glacial acetic acid were added to the wells for 30 min to solubilise the dye adhered to the cell walls. Optical density (OD) was measured at 595 nm using a microplate spectrophotometer as a direct measure of biofilm formation. P. aeruginosa in 3% DMSO will be used as the negative control.
# A stock solution of 500 μg of phenylcapsaicin, capsaicin, compound a, compound b, compound c, was prepared by dissolving 500 μg in 100 μl of ethanol and 900 μl of sterile water. The stock solutions were sequentially diluted with quadruple volumes of solvent (10% aqueous ethanol solution) to yield 125/31.25 (32)/7.81 (8)/1.95 (2) μg/ml test solutions.
# ATCC® BAA1714™ was used to determine the biofilm inhibition activity. Inducer N-hexanoyl homoserine lactone (C6-HSL) was purchased from Sigma-Aldrich. ATCC® BAA1714™ was cultivated in Luria-Bertani (LB) medium (LB, 5 g yeast extract, 10 g tryptone, 5 g NaCl, 1 L water) at 37° C. overnight under aerobic conditions.
# Crystal violet staining assay was performed as in Experiment 3, using ATCC® BAA1714™ in 3% DMSO as the control.
# [1] = any dose tested (125, 32, 8, 2 μg/ml)
Structure (SMILES),Biofilm (OD 595 nm) (2 μg/mL),biofilm formation inhibition activity relative to the activity of phenylcapsaicin (2 μg/ml dose) [%],"biofilm formation inhibition activity, in words (2 μg/ml dose)",Biofilm (OD 595 nm) (8 μg/mL),Biofilm (OD 595 nm) (32 μg/mL),Biofilm (OD 595 nm) (125 μg/mL),"biofilm formation inhibition activity, in words [1]"
COc1cc(CNC(=O)CCCCC#CC2CCCCC2)ccc1O [compound a],6.5,~33,modest biofilm formation inhibition activity,6.8,7.1,8.2,
COc1cc(CNC(=O)CCCCC#CC(C)(C)C)ccc1O [compound b],8.1,,,7.9,8.2,8.8,did not show biofilm formation inhibition activity
COc1cc(CNC(=O)CCCCC#CC(C)(C)C)ccc1OC(C)=O [compound c],8.0,,,8.6,8.5,8.7,did not show biofilm formation inhibition activity
